From US8945540B2, “Compositions for enhancing the antibacterial activity of myeloperoxidase and methods of use thereof” (Exoxemis, Inc., priority 2008, dated 2015)

Tested on: Staphylococcus aureus
Experiment: Control: microbicidal activity of the amino acid or analogue alone (no glucose, MPO, glucose oxidase) in the presence of blood
Assay type: cell-based
Conditions: Staphylococcus aureus, 1 h; amino acid alone 5 mM; MPO 0; GO 0; no glucose; blood; without replication; read-out: Log Reduction 60 min
Excerpt: As a control to determine the microbicidal activity of the amino acids alone, the foregoing procedure was followed without replication, except in the absence of glucose, MPO, and glucose oxidase.

Structure (SMILES)	log reduction at 5000 µM
CC[C@H](C)[C@H](N)C(=O)O [L-Isoleucine]	0
N[C@H](Cc1ccccc1)C(=O)O [D-Phenylalanine]	0
CC(C)[C@@H](N)C(=O)O [D-Valine]	0.1
NC(=O)CC[C@@H](N)C(=O)O [D-Glutamine]	0.1

Same assay, conditions: Staphylococcus aureus, 1 h; amino acid analogue alone 5 mM; MPO 0; GO 0; no glucose; blood; read-out: Log Reduction 60 min

Structure (SMILES)	log reduction at 5000 µM
CC(N)CC(=O)O (stereo not shown) [3-Aminobutanoic acid]	0

Same assay, conditions: amino acid alone 5 mM; MPO 0; GO 0; no glucose; blood; without replication

Structure (SMILES)	Average Viability CFU/ml 60 min [CFU/ml]
CC[C@H](C)[C@H](N)C(=O)O [L-Isoleucine]	20500000
N[C@H](Cc1ccccc1)C(=O)O [D-Phenylalanine]	24200000
CC(C)[C@@H](N)C(=O)O [D-Valine]	20900000
NC(=O)CC[C@@H](N)C(=O)O [D-Glutamine]	20500000

Same assay, conditions: amino acid analogue alone 5 mM; MPO 0; GO 0; no glucose; blood

Structure (SMILES)	Average Viability CFU/ml 60 min [CFU/ml]
CC(N)CC(=O)O (stereo not shown) [3-Aminobutanoic acid]	21300000

Tested on: Staphylococcus aureus
Experiment: Microbicidal activity of the myeloperoxidase system (p-MPO, glucose oxidase, glucose) with amino acids in the presence of blood, CFU plate counts; synergy determination from these CFU
Assay type: cell-based
Conditions: MPO 25 μg/mL; AA 5 mM; 30 min
Method: Bacterial suspensions, specifically Staphylococcus aureus in this example, were prepared by the shake flask method to achieve late log to early stationary phase growth. Bacteria were grown 24 hours in trypticase soy broth (TSB) at 35° C. The cultures were centrifuged at 4,000 rpm for 10 minutes and the supernatants removed. The pellet was collected and washed twice with sterile 0.9% normal saline (NS). The washed microorganisms were suspended and diluted with normal saline to a 3 McFarland standard, i.e., approximately 10^9 bacteria colony forming units (CFU) per mL. Actual colony counts are confirmed by serial dilutions (10^−1 to 10^−5 or 10^−6) plated on TSA and incubated overnight at 35° C. To obtain an approximate final working target inoculum of 10^7 CFU/mL, 15 microliters of organisms per mL of final reaction mixture are used.
Glucose oxidase (GO) from Aspergillus Niger was purchased from Biozyme, Inc., UK, Cat #GO3A, 270 U/mg). Porcine Myeloperoxidase (p-MPO) (Exoxemis, Inc., Little Rock, Ark. U.S.A., 375 U/mg). Sterile stock solutions of D-glucose and sodium chloride were prepared and used at a final concentration of 150 mM each. L-Lysine hydrochloride (Spectrum Chemical Cat #L1142) was prepared as a 100 mM stock solution. Catalase (Sigma, Cat #C-40) was prepared as a 1% stock solution in sterile 0.9% normal saline. Blood was collected by venipuncture and used as whole blood within the same day.
Staphylococcus aureus were used to give a final target concentration of 2-3×10^7 CFU (7.4 log 10) per mL and venous whole blood was used to give a final concentration of 3%. Glucose was added to the reaction mixtures to a final concentration of 150 mM, which initiated the microbicidal reaction. The final volume of the reaction mixtures was 1 mL. The reactions were allowed to run from 30 minutes to 2 hours, as needed, at room temperature or at 37° C. in a dry bath. At the specified time points the reaction mixtures were treated with 100 microliters of a catalase solution, containing a minimum of 100 units/μL, to consume remaining peroxide and terminate the oxidative killing. Serial dilution plate counts were performed from the contents of each vial in sterile saline and inoculated onto trypticase soy agar (TSA) for quantitative culture. Plates were then incubated at 37° C. and counts taken at 24 hours. […] The results are shown in Table 1, as the average of 2 replicates.
The amino acids alone, in the absence of MPO were tested to rule out their microbicidal activity. The results are shown in Table 2 to Table 6, as the average of 2 replicates.
The amino acid analogues alone, in the absence of MPO, were tested to rule out their microbicidal activity. […]
The effect of two-way combinations of individual amino acids with L-isoleucine, as potential enhancing agents, for MPO microbicidal action in the presence of blood, was therefore examined by following the procedure of Example 5.
The Actual CFU observed for the pair is then divided by the Predicted CFU and multiplied by 100 to calculate the % of Predicted value. This value is then to be compared to the threshold value, discussed in the next section, to determine whether the pair are synergistic, antagonistic, or additive.
Calculation of appropriate threshold values for determination of synergism and antagonism was based upon the variability of replicated CFU survivor measures.

Structure (SMILES)	Log 10 (CFU + 1) Survivors
CC[C@H](C)[C@H](N)C(=O)O [L-Isoleucine]	0.0
N[C@H](Cc1ccccc1)C(=O)O [D-Phenylalanine]	5.1
CC(C)[C@@H](N)C(=O)O [D-Valine]	4.1
NC(=O)CC[C@@H](N)C(=O)O [D-Glutamine]	7.3

Same assay, conditions: MPO 25 μg/mL; AA 5 mM; 60 min

Structure (SMILES)	Log 10 (CFU + 1) Survivors
CC[C@H](C)[C@H](N)C(=O)O [L-Isoleucine]	0.0
N[C@H](Cc1ccccc1)C(=O)O [D-Phenylalanine]	0.0
CC(C)[C@@H](N)C(=O)O [D-Valine]	0.0
NC(=O)CC[C@@H](N)C(=O)O [D-Glutamine]	7.0

Same assay, conditions: MPO 25 μg/mL; AA […]; 30 min

Structure (SMILES)	Log 10 (CFU + 1) Survivors
CC[C@H](C)[C@H](N)C(=O)O [L-Isoleucine]	2.1
N[C@H](Cc1ccccc1)C(=O)O [D-Phenylalanine]	7.2
CC(C)[C@@H](N)C(=O)O [D-Valine]	6.7
NC(=O)CC[C@@H](N)C(=O)O [D-Glutamine]	7.2

Same assay, conditions: MPO 25 μg/mL; AA […]; 60 min

Structure (SMILES)	Log 10 (CFU + 1) Survivors
CC[C@H](C)[C@H](N)C(=O)O [L-Isoleucine]	0.0
N[C@H](Cc1ccccc1)C(=O)O [D-Phenylalanine]	4.9
CC(C)[C@@H](N)C(=O)O [D-Valine]	0.0
NC(=O)CC[C@@H](N)C(=O)O [D-Glutamine]	7.0

Same assay, conditions: MPO 100 μg/mL; AA 5 mM; 30 min

Structure (SMILES)	Log 10 (CFU + 1) Survivors
CC[C@H](C)[C@H](N)C(=O)O [L-Isoleucine]	0.0
N[C@H](Cc1ccccc1)C(=O)O [D-Phenylalanine]	0.0
CC(C)[C@@H](N)C(=O)O [D-Valine]	0.0
NC(=O)CC[C@@H](N)C(=O)O [D-Glutamine]	5.0

Same assay, conditions: MPO 100 μg/mL; AA 5 mM; 60 min

Structure (SMILES)	Log 10 (CFU + 1) Survivors
CC[C@H](C)[C@H](N)C(=O)O [L-Isoleucine]	0.0
N[C@H](Cc1ccccc1)C(=O)O [D-Phenylalanine]	0.0
CC(C)[C@@H](N)C(=O)O [D-Valine]	0.0
NC(=O)CC[C@@H](N)C(=O)O [D-Glutamine]	0.0

Same assay, conditions: MPO 100 μg/mL; AA 20 mM; 30 min

Structure (SMILES)	Log 10 (CFU + 1) Survivors
CC[C@H](C)[C@H](N)C(=O)O [L-Isoleucine]	0.0
N[C@H](Cc1ccccc1)C(=O)O [D-Phenylalanine]	0.0
CC(C)[C@@H](N)C(=O)O [D-Valine]	0.0
NC(=O)CC[C@@H](N)C(=O)O [D-Glutamine]	6.8

Same assay, conditions: MPO 100 μg/mL; AA 20 mM; 60 min

Structure (SMILES)	Log 10 (CFU + 1) Survivors
CC[C@H](C)[C@H](N)C(=O)O [L-Isoleucine]	0.0
N[C@H](Cc1ccccc1)C(=O)O [D-Phenylalanine]	0.0
CC(C)[C@@H](N)C(=O)O [D-Valine]	0.0
NC(=O)CC[C@@H](N)C(=O)O [D-Glutamine]	4.0

Same assay, conditions: Table 3; amino acid 5 mM (none: 0 mM); MPO 38 U/ml; GO 33.3 U/ml; blood

Structure (SMILES)	Average Viability CFU/ml 60 min [CFU/ml]	Log 10 (CFU + 1) Survivors 60 min	Log Reduction 60 min
CC[C@H](C)[C@H](N)C(=O)O [L-Isoleucine]	0	0.0	7.3

Same assay, conditions: Table 5; amino acid 5 mM (none: 0 mM); MPO 38 U/ml; GO 33.3 U/ml; blood

Structure (SMILES)	Average Viability CFU/ml 60 min [CFU/ml]	Log Reduction 60 min
N[C@H](Cc1ccccc1)C(=O)O [D-Phenylalanine]	0	7.4
CC(C)[C@@H](N)C(=O)O [D-Valine]	0	7.4
NC(=O)CC[C@@H](N)C(=O)O [D-Glutamine]	18	6.1

Same assay, conditions: Table 7; amino acid analogue 5 mM; MPO 38 U/ml; GO 33.3 U/ml; blood

Structure (SMILES)	Average Viability CFU/ml 60 min [CFU/ml]	Log Reduction 60 min
CC(N)CC(=O)O (stereo not shown) [3-Aminobutanoic acid]	9	6.4

Same assay, conditions: Table 10; single amino acid 2.5 mM; MPO 4.7 U/ml, GO 4.2 U/ml; in the presence of blood; 50 min

Structure (SMILES)	Average Viability CFU/ml 50 min [CFU/ml]	Log Reduction 50 min
CC[C@H](C)[C@H](N)C(=O)O [L-Isoleucine]	159500	2.2
N[C@H](Cc1ccccc1)C(=O)O [D-Phenylalanine]	7950000	0.5
CC(C)[C@@H](N)C(=O)O [D-Valine]	630000	1.6
NC(=O)CC[C@@H](N)C(=O)O [D-Glutamine]	14750000	0.2

Same assay, conditions: Table 11; single amino acid 2.5 mM; MPO 4.7 U/ml, GO 4.2 U/ml; in the presence of blood; 50 min

Structure (SMILES)	Average Viability CFU/ml 50 min [CFU/ml]	Log Reduction 50 min
CC[C@H](C)[C@H](N)C(=O)O [L-Isoleucine]	155500	2.2
N[C@H](Cc1ccccc1)C(=O)O [D-Phenylalanine]	9300000	0.5
NC(=O)CC[C@@H](N)C(=O)O [D-Glutamine]	15500000	0.2

Same assay, conditions: Table 13; single amino acid 2.5 mM; MPO 4.7 U/ml, GO 4.2 U/ml; in the presence of blood; 50 min

Structure (SMILES)	Average Viability CFU/ml 50 min [CFU/ml]	Log Reduction 50 min
N[C@H](Cc1ccccc1)C(=O)O [D-Phenylalanine]	8850000	0.4

Same assay, conditions: Table 14; single amino acid 2.5 mM; MPO 4.7 U/ml, GO 4.2 U/ml; in the presence of blood; 50 min

Structure (SMILES)	Average Viability CFU/ml 50 min [CFU/ml]	Log Reduction 50 min
CC[C@H](C)[C@H](N)C(=O)O [L-Isoleucine]	117000	2.4
N[C@H](Cc1ccccc1)C(=O)O [D-Phenylalanine]	7950000	0.5
NC(=O)CC[C@@H](N)C(=O)O [D-Glutamine]	15050000	0.3

Same assay, conditions: Table 19; amino acid 3.5 mM; MPO 4.7 U/ml, GO 4.2 U/ml; 50 min

Structure (SMILES)	Average Viability CFU/ml 50 min [CFU/ml]	Log Reduction 50 min
CC[C@H](C)[C@H](N)C(=O)O [L-Isoleucine]	129333	2.3

Same assay, conditions: Table 19; amino acid (racemic, L- or D-form) 2.5 mM; MPO 4.7 U/ml, GO 4.2 U/ml; 50 min

Structure (SMILES)	Average Viability CFU/ml 50 min [CFU/ml]	Log Reduction 50 min
N[C@H](Cc1ccccc1)C(=O)O [D-Phenylalanine]	8700000	0.5
CC(C)[C@@H](N)C(=O)O [D-Valine]	630000	1.6

Same assay, conditions: single amino acid 2.5 mM; MPO 4.7 U/ml; GO 4.2 U/ml; blood

Structure (SMILES)	Average Viability CFU/ml 50 min [CFU/ml]	Log Reduction 50 min
CC[C@H](C)[C@H](N)C(=O)O [L-Isoleucine]	73000	2.5
CC(C)[C@@H](N)C(=O)O [D-Valine]	630000	1.6
